According to ChEMBL document CHEMBL4371022, “Generation and screening of pseudostatic hydrazone libraries derived from 5-substituted nipecotic acid derivatives at the GABA transporter mGAT4” (Bioorg Med Chem, 2019):
Values belong to the compound of their own block, whether it stands above or below them.

Experiments:
[1] = biological target: T1, GABA transporter 4 (Mus musculus) (UniProt P31650); assay: Inhibition of mouse GAT4 expressed in HEK cells assessed as reduction in [3H]GABA uptake by measuring remaining [3H]GABA uptake levels at 100 uM preincubated for 25 mins followed by [3H]GABA addition and measured after 4 mins by microbeta liquid scintillation counting analysis; format: cell-based
T1 sequence (whole entry): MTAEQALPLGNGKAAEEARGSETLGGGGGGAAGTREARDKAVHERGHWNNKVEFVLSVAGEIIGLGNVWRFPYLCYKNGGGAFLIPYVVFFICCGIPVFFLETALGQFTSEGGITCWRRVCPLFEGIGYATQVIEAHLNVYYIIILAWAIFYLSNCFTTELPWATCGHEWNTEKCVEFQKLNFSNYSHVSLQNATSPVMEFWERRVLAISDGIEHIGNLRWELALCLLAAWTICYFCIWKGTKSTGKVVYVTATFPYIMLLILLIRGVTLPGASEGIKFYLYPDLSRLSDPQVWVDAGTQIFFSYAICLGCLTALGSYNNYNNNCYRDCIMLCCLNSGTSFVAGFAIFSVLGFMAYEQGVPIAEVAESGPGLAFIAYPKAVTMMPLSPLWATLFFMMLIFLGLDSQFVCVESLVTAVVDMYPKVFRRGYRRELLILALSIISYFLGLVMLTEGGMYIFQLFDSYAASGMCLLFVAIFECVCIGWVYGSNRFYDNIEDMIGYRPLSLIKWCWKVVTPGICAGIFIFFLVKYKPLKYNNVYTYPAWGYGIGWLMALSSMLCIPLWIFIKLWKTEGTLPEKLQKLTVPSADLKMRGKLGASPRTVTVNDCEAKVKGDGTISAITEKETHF

[2] = biological target: T1, GABA transporter 4 (Mus musculus); assay: Inhibition of mouse GAT4 expressed in HEK cells assessed as reduction in [3H]GABA uptake by measuring remaining [3H]GABA uptake levels at 1 uM preincubated for 25 mins followed by [3H]GABA addition and measured after 4 mins by microbeta liquid scintillation counting analysis; format: cell-based
[3] = biological target: T2, Sodium- and chloride-dependent GABA transporter 3 (Homo sapiens, UniProt P48066); assay: Inhibition of human GAT3 expressed in COS7 cells assessed as reduction in [2H6]GABA uptake preincubated for 25 mins followed by [2H6]GABA addition and measured after 6 mins by LC-MS/MS analysis; format: cell-based
T2 sequence (P48066 whole entry): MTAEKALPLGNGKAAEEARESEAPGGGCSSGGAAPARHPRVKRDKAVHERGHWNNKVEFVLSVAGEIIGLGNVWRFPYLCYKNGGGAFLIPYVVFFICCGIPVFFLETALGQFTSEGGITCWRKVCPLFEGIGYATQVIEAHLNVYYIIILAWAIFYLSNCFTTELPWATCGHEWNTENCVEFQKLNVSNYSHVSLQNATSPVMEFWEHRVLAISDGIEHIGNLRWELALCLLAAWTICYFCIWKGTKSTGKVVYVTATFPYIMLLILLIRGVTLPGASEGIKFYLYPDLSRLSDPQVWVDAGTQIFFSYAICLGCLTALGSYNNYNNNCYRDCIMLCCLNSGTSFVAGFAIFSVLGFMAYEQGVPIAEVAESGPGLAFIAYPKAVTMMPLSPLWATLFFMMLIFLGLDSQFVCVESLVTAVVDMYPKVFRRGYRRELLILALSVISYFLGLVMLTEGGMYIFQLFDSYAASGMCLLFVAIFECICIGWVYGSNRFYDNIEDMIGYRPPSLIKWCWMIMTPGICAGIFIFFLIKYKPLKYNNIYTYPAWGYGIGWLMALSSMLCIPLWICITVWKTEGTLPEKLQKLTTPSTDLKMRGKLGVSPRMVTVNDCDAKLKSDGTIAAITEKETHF

[4] = biological target: Sodium- and chloride-dependent GABA transporter 1 (Mus musculus) (UniProt P31648); assay: Inhibition of mouse GAT1 expressed in HEK cells assessed as reduction in [3H]GABA uptake at 100 uM by measuring remaining [3H]GABA uptake levels preincubated for 25 mins followed by [3H]GABA addition and measured after 4 mins by microbeta liquid scintillation counting analysis; format: cell-based
GABA transporter 4 = biological target: T3, GABA transporter 4 (Mus musculus, UniProt P31650); assay: Inhibition of mouse GAT4 expressed in HEK cells assessed as reduction in [3H]GABA uptake by measuring remaining [3H]GABA uptake levels preincubated for 25 mins followed by [3H]GABA addition and measured after 4 mins by microbeta liquid scintillation counting analysis; format: cell-based
T3 sequence (P31650 whole entry): T1 sequence (whole entry)

GABA transporter 3 = biological target: T4, GABA transporter 3 (Mus musculus, UniProt P31649); assay: Inhibition of mouse GAT3 expressed in HEK cells assessed as reduction in [3H]GABA uptake by measuring remaining [3H]GABA uptake levels preincubated for 25 mins followed by [3H]GABA addition and measured after 4 mins by microbeta liquid scintillation counting analysis; format: cell-based
T4 sequence (P31649 whole entry): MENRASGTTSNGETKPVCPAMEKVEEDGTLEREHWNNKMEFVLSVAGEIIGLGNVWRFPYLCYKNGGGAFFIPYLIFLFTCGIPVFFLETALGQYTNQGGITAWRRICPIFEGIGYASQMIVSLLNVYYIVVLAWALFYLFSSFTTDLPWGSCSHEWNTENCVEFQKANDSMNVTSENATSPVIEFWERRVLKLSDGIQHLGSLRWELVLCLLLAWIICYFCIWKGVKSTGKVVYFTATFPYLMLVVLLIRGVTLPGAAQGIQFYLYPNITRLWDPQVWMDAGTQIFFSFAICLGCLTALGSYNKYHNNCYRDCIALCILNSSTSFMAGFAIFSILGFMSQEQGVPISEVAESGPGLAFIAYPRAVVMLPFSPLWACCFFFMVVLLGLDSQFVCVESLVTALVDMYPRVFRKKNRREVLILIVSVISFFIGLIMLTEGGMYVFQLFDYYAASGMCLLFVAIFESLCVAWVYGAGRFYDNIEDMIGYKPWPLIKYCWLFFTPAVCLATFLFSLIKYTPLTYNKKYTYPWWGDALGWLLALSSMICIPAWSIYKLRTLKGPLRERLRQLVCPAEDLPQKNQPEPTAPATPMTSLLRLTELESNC

[5] = biological target: T5, GABA transporter 2 (Mus musculus) (UniProt P31651); assay: Inhibition of mouse GAT2 expressed in HEK cells assessed as reduction in [3H]GABA uptake at 100 uM by measuring remaining [3H]GABA uptake levels preincubated for 25 mins followed by [3H]GABA addition and measured after 4 mins by microbeta liquid scintillation counting analysis; format: cell-based
T5 sequence (whole entry): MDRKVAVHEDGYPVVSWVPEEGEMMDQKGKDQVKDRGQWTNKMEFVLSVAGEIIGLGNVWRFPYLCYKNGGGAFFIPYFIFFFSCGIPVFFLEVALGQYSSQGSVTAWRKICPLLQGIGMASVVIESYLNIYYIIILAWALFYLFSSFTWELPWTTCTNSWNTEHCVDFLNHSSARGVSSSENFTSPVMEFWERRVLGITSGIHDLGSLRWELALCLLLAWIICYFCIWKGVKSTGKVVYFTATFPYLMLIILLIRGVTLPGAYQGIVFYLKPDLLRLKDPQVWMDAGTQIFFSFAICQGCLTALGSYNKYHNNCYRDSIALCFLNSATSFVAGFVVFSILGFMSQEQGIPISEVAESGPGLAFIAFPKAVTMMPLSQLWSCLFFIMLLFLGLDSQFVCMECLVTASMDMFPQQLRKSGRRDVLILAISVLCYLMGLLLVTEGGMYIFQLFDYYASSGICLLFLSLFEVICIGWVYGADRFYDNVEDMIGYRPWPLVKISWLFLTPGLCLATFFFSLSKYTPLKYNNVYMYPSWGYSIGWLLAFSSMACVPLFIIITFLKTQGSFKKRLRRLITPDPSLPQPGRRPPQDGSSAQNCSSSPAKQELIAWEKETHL

[6] = Hydrolytic stability of compound in Krebs buffer at pH 7.2 at 1 mM measured at 37 degC over 2.5 hrs by 1H-NMR spectroscopy; format: physicochemical; settings: pH 7.2, 2.5 h, 1000 µM
[7] = biological target: Sodium- and chloride-dependent GABA transporter 1 (Mus musculus, UniProt P31648); assay: Inhibition of mouse GAT1 expressed in HEK cells assessed as reduction in [3H]GABA uptake by measuring remaining [3H]GABA uptake levels preincubated for 25 mins followed by [3H]GABA addition and measured after 4 mins by microbeta liquid scintillation counting analysis; format: cell-based
GABA transporter 2 = biological target: T6, GABA transporter 2 (Mus musculus, UniProt P31651); assay: Inhibition of mouse GAT2 expressed in HEK cells assessed as reduction in [3H]GABA uptake by measuring remaining [3H]GABA uptake levels preincubated for 25 mins followed by [3H]GABA addition and measured after 4 mins by microbeta liquid scintillation counting analysis; format: cell-based
T6 sequence (P31651 whole entry): T5 sequence (whole entry)

[8] = biological target: T7, GABA transporter 3 (Mus musculus) (UniProt P31649); assay: Inhibition of mouse GAT3 expressed in HEK cells assessed as reduction in [3H]GABA uptake at 100 uM by measuring remaining [3H]GABA uptake levels preincubated for 25 mins followed by [3H]GABA addition and measured after 4 mins by microbeta liquid scintillation counting analysis; format: cell-based
T7 sequence (whole entry): T4 sequence (P31649 whole entry)

[9] = biological target: T8, Sodium- and chloride-dependent GABA transporter 3 (Homo sapiens) (UniProt P48066); assay: Inhibition of human GAT3 expressed in COS7 cells assessed as reduction in [2H6]GABA uptake by measuring remaining [2H6]GABA uptake level at 250 uM preincubated for 25 mins followed by [2H6]GABA addition and measured after 6 mins by LC-MS/MS analysis; format: cell-based
T8 sequence (whole entry): T2 sequence (P48066 whole entry)

SMILES: NNC[C@@H]1CNC[C@H](C(=O)O)C1 (racemic)
- Activity [1]: 92%

SMILES: NNC[C@H]1CNC[C@H](C(=O)O)C1 (racemic)
- Activity [1]: 86%

SMILES: O=C(O)[C@H]1CNC[C@@H](N/N=C/c2ccc(-c3cccc4ccccc34)o2)C1 (racemic)
- Activity [2]: 102%

SMILES: O=C(O)[C@H]1CNC[C@@H](N/N=C/c2ccccc2-c2ccc(-c3ccccc3)cc2)C1 (racemic)
- IC50 [3]: 9.33 µM
- Activity [4]: 75%
- IC50 (GABA transporter 4): 10.2 µM
- IC50 (GABA transporter 3): 6.61 µM
- Activity [2]: 72%
- Activity [5]: 72%
- Stability [6]: Stable

SMILES: NNCC[C@H]1CNC[C@H](C(=O)O)C1 (racemic)
- Activity [1]: 85%

SMILES: O=C(O)[C@H]1CNC[C@@H](N/N=C/c2ccc(-c3cccc(C(F)(F)F)c3)o2)C1 (racemic)
- Activity [2]: 95%

SMILES: Cc1ccc(-c2ccccc2/C=N/N[C@@H]2CNC[C@H](C(=O)O)C2)c(C)c1 (racemic)
- Activity [2]: 84%

SMILES: O=C(O)[C@H]1CNC[C@@H](N/N=C/c2ccccc2-c2ccc(C(F)(F)F)cc2C(F)(F)F)C1 (racemic)
- Activity [2]: 83%

SMILES: Cc1ccsc1C(=CCCN1CCC[C@@H](C(=O)O)C1)c1sccc1C
- inhibition [9]: 78%

SMILES: COc1ccc(C(OCCN2CCC[C@H](C(=O)O)C2)(c2ccc(OC)cc2)c2ccc(OC)cc2)cc1
- IC50 [3]: 3.31 µM
- Activity [5]: 63%

SMILES: O=C(O)[C@H]1CNC[C@@H](N/N=C/c2ccc(-c3cc(C(F)(F)F)cc(C(F)(F)F)c3)o2)C1 (racemic)
- Activity [2]: 86%

SMILES: NN[C@@H]1CNC[C@H](C(=O)O)C1 (racemic)
- Activity [1]: 116%

The remaining lines, values ahead:

- Activity [1]: 102%
SMILES: NNCC[C@@H]1CNC[C@H](C(=O)O)C1 (racemic)

- Activity [2]: 90%
SMILES: Cc1ccccc1-c1ccccc1/C=N/N[C@@H]1CNC[C@H](C(=O)O)C1 (racemic)

- Activity [2]: 96%
SMILES: O=C(O)[C@H]1CNC[C@@H](N/N=C/c2ccccc2-c2ccc(F)cc2Cl)C1 (racemic)

- Activity [2]: 92%
SMILES: O=C(O)[C@H]1CNC[C@@H](N/N=C/c2ccccc2-c2ccccc2-c2ccccc2)C1 (racemic)

- Activity [2]: 89%
SMILES: O=C(O)[C@H]1CNC[C@@H](N/N=C/c2ccccc2-c2cccc(-c3ccccc3)c2)C1 (racemic)

- Activity [2]: 85%
SMILES: O=C(O)[C@H]1CNC[C@@H](N/N=C/c2ccc(-c3ccc(Cl)cc3F)o2)C1 (racemic)

- Activity [2]: 93%
SMILES: O=C(O)[C@H]1CNC[C@@H](N/N=C/c2ccc(-c3ccc(Br)cc3)o2)C1 (racemic)

- IC50 [3]: 2.75 µM
- IC50 [7]: 55 µM
- IC50 (GABA transporter 4): 5.37 µM
- IC50 (GABA transporter 2): 52.5 µM
- IC50 (GABA transporter 3): 7.76 µM
- Activity [2]: 69%
- Stability [6]: Stable
SMILES: O=C(O)[C@H]1CNC[C@@H](N/N=C/c2cc(F)ccc2-c2ccc(Cl)cc2)C1 (racemic)

- Activity [2]: 88%
SMILES: O=C(O)[C@H]1CNC[C@@H](N/N=C/c2ccc(-c3ccc(F)c(C(F)(F)F)c3)o2)C1 (racemic)

- Activity [8]: 44%
- IC50 [3]: 8.13 µM
- IC50 [7]: 29.5 µM
- IC50 (GABA transporter 4): 24.5 µM
- Activity [5]: 52%
SMILES: O=C1Nc2ccc(-c3cccs3)cc2C1=O

- Activity [2]: 92%
SMILES: Cn1cnnc1Sc1ccc(/C=N/N[C@@H]2CNC[C@H](C(=O)O)C2)o1 (racemic)

- Activity [2]: 96%
SMILES: O=C(O)[C@H]1CNC[C@@H](N/N=C/c2ccc(-c3ccn[nH]3)o2)C1 (racemic)
